Data: publication PMC10507085, “Pharmacological inhibition of TBK1/IKKε blunts immunopathology in a murine model of SARS-CoV-2 infection” (Nature Communications, 2023)

Columns and labels:
Experiment in all cases: biochemical
Set-up in all cases: KINOMEscan competition binding, DNA-tagged kinase against immobilised ligand, qPCR read-out
Conditions in all cases: read-out: Percent Control
ADCK4 = biological target: T1, ADCK4 (Homo sapiens, UniProt Q96D53)
T1 construct: gene COQ8B
Procedure: (§1) The KINOMEscan^TM kinase assays[65] were performed by Eurofins DiscoverX Corporation. For each kinase, the assay relies on the ability of the tested compound to compete against an immobilised ligand for binding to the DNA-tagged kinase. RT-qPCR is then used to measure the quantity of kinase molecules bound to the immobilised ligand, which is decreased if the tested compound competed with the kinase-ligand interaction. An 11-point 3-fold serial dilution of IDX compound was prepared in 100% DMSO at 100× final test concentration and subsequently diluted to 1× in the assay. […]

CAMK2G = CAMK2G (Homo sapiens, UniProt Q13555)
Procedure: as §1

CDK5 = CDK5 (Homo sapiens, UniProt Q00535)
Procedure: as §1

CSNK1D = CSNK1D (Homo sapiens, UniProt P48730)
Procedure: as §1

FLT3-autoinhibited = FLT3-autoinhibited (Homo sapiens, UniProt P36888)
Procedure: as §1

GRK4 = GRK4 (Homo sapiens, UniProt P32298)
Procedure: as §1

HUNK = HUNK (Homo sapiens, UniProt P57058)
Procedure: as §1

LATS2 = LATS2 (Homo sapiens, UniProt Q9NRM7)
Procedure: as §1

MAP2K6 = MAP2K6 (Homo sapiens, UniProt P52564)
Procedure: as §1

MAPK6 = MAPK6 (Homo sapiens, UniProt Q16659)
Procedure: as §1

MET = MET (Homo sapiens, UniProt P08581)
Procedure: as §1

PIK3CG = PIK3CG (Homo sapiens, UniProt P48736)
Procedure: as §1

PRKD1 = PRKD1 (Homo sapiens, UniProt Q15139)
Procedure: as §1

PRKX = PRKX (Homo sapiens, UniProt P51817)
Procedure: as §1

RIPK1 = RIPK1 (Homo sapiens, UniProt Q13546)
Procedure: as §1

SGK2 = SGK2 (Homo sapiens, UniProt Q9HBY8)
Procedure: as §1

SLK = SLK (Homo sapiens, UniProt Q9H2G2)
Procedure: as §1

SNRK = SNRK (Homo sapiens, UniProt Q9NRH2)
Procedure: as §1

TRPM6 = TRPM6 (Homo sapiens, UniProt Q9BX84)
Procedure: as §1

ZAP70 = ZAP70 (Homo sapiens, UniProt P43403)
Procedure: as §1

T1 sequence (Q96D53 whole entry): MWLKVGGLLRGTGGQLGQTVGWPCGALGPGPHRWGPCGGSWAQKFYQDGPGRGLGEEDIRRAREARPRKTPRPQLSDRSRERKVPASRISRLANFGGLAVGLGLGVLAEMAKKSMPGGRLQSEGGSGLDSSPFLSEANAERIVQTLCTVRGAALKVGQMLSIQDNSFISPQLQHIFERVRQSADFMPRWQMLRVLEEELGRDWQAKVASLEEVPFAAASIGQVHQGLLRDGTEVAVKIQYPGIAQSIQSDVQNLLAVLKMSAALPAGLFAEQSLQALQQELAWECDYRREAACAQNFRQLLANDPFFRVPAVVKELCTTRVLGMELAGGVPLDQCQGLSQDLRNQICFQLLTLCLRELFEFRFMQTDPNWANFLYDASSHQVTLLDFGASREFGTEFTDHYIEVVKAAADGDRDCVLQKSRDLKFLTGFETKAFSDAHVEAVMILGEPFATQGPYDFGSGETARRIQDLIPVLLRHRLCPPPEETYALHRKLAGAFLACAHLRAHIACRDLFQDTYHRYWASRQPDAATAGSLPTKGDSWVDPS
Sequence of LATS2 (Q9NRM7 whole entry): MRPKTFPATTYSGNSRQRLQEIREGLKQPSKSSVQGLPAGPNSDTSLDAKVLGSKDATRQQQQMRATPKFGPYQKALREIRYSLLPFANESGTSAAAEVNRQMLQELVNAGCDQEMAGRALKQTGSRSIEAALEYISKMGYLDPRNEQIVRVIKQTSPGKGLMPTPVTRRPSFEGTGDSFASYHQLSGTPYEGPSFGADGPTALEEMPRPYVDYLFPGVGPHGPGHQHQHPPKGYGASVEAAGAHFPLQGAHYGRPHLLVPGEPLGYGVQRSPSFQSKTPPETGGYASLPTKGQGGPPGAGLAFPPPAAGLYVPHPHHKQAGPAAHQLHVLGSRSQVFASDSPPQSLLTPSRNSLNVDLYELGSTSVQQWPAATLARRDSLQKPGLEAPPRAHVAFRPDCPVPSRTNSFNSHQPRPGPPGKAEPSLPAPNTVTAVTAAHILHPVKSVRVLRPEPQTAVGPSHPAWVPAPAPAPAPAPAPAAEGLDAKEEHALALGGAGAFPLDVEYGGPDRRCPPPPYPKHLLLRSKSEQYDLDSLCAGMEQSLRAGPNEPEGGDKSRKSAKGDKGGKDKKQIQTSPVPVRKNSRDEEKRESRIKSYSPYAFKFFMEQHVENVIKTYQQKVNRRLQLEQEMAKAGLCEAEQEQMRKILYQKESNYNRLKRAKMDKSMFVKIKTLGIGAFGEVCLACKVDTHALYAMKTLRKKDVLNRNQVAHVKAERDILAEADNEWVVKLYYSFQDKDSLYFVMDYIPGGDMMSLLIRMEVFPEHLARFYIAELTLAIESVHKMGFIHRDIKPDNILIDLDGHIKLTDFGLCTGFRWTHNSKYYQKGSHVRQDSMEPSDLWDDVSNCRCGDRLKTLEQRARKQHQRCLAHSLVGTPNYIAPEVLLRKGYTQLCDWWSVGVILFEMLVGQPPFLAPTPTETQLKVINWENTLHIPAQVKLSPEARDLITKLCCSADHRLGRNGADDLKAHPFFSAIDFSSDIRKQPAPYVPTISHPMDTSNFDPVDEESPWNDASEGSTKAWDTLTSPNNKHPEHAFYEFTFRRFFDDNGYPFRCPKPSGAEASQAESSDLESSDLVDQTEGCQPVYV
Sequence of SNRK (Q9NRH2 whole entry): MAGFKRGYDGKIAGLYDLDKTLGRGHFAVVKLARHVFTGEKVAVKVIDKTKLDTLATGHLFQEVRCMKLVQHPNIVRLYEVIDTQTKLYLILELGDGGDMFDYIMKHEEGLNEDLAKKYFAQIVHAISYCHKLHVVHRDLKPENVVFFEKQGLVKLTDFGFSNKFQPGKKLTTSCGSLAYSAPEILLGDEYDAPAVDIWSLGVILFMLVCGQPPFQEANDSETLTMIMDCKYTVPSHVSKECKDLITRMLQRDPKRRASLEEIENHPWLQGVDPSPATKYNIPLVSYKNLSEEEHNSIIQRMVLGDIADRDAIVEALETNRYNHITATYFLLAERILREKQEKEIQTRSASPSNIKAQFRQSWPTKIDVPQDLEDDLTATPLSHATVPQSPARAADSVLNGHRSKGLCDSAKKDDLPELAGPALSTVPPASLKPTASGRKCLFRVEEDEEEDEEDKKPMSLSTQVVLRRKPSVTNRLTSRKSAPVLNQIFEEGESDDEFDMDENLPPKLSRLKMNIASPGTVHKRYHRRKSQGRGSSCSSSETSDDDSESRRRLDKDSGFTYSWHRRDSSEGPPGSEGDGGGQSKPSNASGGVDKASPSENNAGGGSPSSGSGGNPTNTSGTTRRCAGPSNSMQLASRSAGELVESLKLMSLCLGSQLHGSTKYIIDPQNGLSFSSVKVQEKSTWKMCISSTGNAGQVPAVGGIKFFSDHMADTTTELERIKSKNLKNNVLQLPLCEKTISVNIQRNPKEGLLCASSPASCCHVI
Sequence of PIK3CG (P48736 whole entry): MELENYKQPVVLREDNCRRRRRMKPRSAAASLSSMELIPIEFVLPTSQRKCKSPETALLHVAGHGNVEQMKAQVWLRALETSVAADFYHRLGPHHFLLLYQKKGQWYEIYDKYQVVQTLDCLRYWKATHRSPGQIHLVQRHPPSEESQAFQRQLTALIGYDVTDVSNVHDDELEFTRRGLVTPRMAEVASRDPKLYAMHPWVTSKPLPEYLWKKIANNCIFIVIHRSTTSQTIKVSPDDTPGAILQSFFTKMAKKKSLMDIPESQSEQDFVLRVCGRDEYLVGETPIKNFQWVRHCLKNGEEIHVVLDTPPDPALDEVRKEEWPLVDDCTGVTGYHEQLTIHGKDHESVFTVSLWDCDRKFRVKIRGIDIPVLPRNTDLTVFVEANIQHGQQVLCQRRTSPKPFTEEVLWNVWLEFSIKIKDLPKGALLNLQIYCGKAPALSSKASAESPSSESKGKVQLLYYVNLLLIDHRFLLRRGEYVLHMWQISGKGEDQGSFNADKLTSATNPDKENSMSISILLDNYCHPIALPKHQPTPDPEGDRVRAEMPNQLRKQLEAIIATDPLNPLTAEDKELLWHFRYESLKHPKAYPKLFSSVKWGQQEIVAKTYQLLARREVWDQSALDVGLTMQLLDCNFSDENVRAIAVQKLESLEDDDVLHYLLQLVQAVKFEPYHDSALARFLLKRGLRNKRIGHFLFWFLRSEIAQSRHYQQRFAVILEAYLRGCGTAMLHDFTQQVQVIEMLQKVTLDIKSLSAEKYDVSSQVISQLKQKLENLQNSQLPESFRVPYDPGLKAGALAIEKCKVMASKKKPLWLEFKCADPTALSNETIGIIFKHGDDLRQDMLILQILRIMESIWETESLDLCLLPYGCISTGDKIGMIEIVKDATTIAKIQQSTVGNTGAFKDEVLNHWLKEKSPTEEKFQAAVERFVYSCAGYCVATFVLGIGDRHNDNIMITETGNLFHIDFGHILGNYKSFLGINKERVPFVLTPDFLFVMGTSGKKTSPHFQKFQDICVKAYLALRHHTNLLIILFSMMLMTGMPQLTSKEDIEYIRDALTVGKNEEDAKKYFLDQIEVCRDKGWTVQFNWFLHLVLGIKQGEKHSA
Sequence of MET (P08581 whole entry): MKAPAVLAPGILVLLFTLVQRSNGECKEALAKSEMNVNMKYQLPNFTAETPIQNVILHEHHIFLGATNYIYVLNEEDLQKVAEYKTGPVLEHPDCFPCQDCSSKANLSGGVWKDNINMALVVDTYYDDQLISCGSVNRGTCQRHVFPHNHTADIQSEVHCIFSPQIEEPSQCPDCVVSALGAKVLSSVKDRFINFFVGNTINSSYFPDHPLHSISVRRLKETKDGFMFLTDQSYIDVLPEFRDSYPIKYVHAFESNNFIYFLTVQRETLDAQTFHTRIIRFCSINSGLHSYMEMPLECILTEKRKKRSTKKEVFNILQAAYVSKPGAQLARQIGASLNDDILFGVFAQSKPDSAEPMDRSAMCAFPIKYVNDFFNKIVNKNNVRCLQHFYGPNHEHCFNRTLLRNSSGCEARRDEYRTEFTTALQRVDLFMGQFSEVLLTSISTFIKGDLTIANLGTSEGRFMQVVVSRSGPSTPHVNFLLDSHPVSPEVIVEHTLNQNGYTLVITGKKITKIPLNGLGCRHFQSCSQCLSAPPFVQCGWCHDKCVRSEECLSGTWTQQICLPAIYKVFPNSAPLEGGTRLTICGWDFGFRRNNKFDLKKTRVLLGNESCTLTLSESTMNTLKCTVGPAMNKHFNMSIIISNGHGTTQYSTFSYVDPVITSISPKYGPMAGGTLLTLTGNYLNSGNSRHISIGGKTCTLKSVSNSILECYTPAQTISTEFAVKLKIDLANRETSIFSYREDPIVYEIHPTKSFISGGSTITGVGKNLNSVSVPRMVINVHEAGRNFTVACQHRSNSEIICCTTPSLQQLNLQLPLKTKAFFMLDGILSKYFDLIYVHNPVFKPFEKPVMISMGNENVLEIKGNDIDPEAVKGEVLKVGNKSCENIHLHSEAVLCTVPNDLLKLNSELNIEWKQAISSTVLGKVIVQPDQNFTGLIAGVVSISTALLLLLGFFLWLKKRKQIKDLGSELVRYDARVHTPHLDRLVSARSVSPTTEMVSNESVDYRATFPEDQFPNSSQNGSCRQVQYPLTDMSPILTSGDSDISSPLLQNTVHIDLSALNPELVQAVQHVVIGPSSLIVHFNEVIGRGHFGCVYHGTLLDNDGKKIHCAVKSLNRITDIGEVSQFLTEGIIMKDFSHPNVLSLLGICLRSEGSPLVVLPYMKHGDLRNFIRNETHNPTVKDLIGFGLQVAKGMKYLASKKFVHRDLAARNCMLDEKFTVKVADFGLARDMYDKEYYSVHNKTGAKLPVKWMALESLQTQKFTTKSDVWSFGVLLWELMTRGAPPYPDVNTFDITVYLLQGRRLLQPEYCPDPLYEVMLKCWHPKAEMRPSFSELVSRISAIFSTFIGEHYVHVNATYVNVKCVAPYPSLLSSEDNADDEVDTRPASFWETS

SMILES: Oc1ccc(C2=Cc3ccc(O)cc3OC2)cc1 [compound 1, idronoxil]
- remaining binding at 10 µM (ADCK4): 81%
- remaining binding at 10 µM (CAMK2G): 85%
- remaining binding at 10 µM (CDK5): 100%
- remaining binding at 10 µM (CSNK1D): 58%
- remaining binding at 10 µM (FLT3-autoinhibited): 51%
- remaining binding at 10 µM (GRK4): 68%
- remaining binding at 10 µM (HUNK): 69%
- remaining binding at 10 µM (LATS2): 55%
- remaining binding at 10 µM (MAP2K6): 85%
- remaining binding at 10 µM (MAPK6): 96%
- remaining binding at 10 µM (MET): 81%
- remaining binding at 10 µM (PIK3CG): 79%
- remaining binding at 10 µM (PRKD1): 96%
- remaining binding at 10 µM (PRKX): 88%
- remaining binding at 10 µM (RIPK1): 78%
- remaining binding at 10 µM (SGK2): 95%
- remaining binding at 10 µM (SLK): 73%
- remaining binding at 10 µM (SNRK): 81%
- remaining binding at 10 µM (TRPM6): 88%
- remaining binding at 10 µM (ZAP70): 78%
